According to patent US20250057813A1, “APOPTOSIS RELATED PROTEIN IN THE TGF-BETA SIGNALING PATHWAY (ARTS) MIMETIC COMPOUNDS, COMPOSITIONS, METHODS AND USES THEREOF IN INDUCTION OF APOPTOSIS” (Carmel-Haifa University Economic Corporation Ltd., priority 2022, published 2025):
Peptide text beside a SMILES is read from it. * marks the point of attachment. Cbz = O=C(OCc1ccccc1)*

Legend:
sept4/ARTS KO MEFs = assay: Western blot of Sept4/ARTS KO MEFs treated with proteasome inhibitor; format: cell-based, mouse; conditions: MG-132, 20 μM for 6 hours
Protocol: (§1) Cells were lysed in whole-cell extract buffer [25 mM HEPES, pH 7.7, […], 1.5 mM MgCl2, 0.2 mM EDTA, 0.1% Triton X-100, 100 μg/ml phenylmethylsulfonyl fluoride (PMSF) and protease inhibitor cocktail (Roche, 1:100 dilution)] and placed on ice for 30 min (vortexing once after 15 min). After 30 minutes, the samples were centrifuged at 13,000×g for 10 minutes at 4° C. The supernatants containing total protein were measured for protein concentration using Bio-Rad Protein Assay Dye Reagent Concentrate Kit. 40 to […] was separated by sodium dodecyl sulfate-polyacrylamide gel electrophoresis (SDS-PAGE) (12% or 7.5%), followed by transfer to a nitrocellulose membrane. The membranes were blocked with 5% (w/v) non-fat dried skimmed milk powder in PBS supplemented with 0.05% Tween-20 (PBS-T) for 1 h at RT. Next, primary antibodies were added at 4° C. overnight or for 2 h at room temperature. Membranes were then incubated with secondary antibody for 1 h at RT and washed three times for 15 min each with PBS-T. Western Bright ECL (Advansta) was added to the membrane for 30-60 s and analyzed using Image Quant LAS-4000 (GE Healthcare Life Sciences) and Image Quant LAS-4000 software (GE Healthcare Life Sciences).

[1] = tested on: WT MEFs and Sept4/ARTS KO MEFs cells; assay: Western blot of WT MEFs and Sept4/ARTS KO MEFs; format: cell-based, mouse; conditions: 20 or 40 μM, 24 hours
Protocol: as §1

p53-ARTS complex = assay: BiFC assay in WT MEFs (VN-p53 and VC-ARTS); format: cell-based; conditions: 200 μM Etoposide
From the text: The split-Venus BiFC system was used to evaluate close proximity indicating possible direct binding between pairs of proteins. The proteins were fused either to the N-terminal part of the VenusYFP (yellow fluorescence protein) (VN) or the C-terminal domain (VC). All Venus fragments were fused to the C-terminal sequences of these proteins. The Jun and bFos pair was used as a positive control (p.c.), and the Jun and bFosdeltaZTP pair was used as a negative control (n.c.). A vector encoding dsRed was used as a transfection efficiency marker.

HL-60 leukemia cell line = assay: Western blot analysis of HL-60; format: cell-based; conditions: 1 μM ABT199, 24 hrs
Protocol: (§2) The cells were lysed in WCE (whole-cell extract) buffer [25 mM Hepes, pH 7.7, 0.3M NaCl, 1.5 mM MgCl2, 0.2 mM EDTA, 0.1% Triton X-100, 100[μg/ml PMSF and protease inhibitor cocktail (Roche, 1:100 dilution)]. 100 μg of total cell protein, measured with the Bio-Rad Protein Assay kit, were separated by SDS-PAGE (12%) followed by transfer for 2 h on to a nitrocellulose membrane. The membrane was blocked with 5% (w/v) non-fat dried skimmed milk powder in PBS supplemented with 0.05% Tween20 (PBS-T) for 1 hour at room temperature (R.T). Membrane was then probed with primary antibody at 4° C. overnight. Next, the membrane was incubated with the appropriate HRP-conjugated secondary antibody, for 1 hour at R.T. and washed 15 min ×3 with PBS-T. WesternBright ECL (Advansta) was added to the membrane for 2 min and analyzed using ImageQuant LAS-4000 analyzer (GE Healthcare Life Sciences) & “ImageQuant LAS-4000” software (GE Healthcare Life Sciences). Densitometry analysis was performed using ImageQuant total lab 7 (GE Healthcare Life Sciences), image analysis software.

[2] = tested on: CCRF-CEM (acute lymphoblastic leukemia) cell line; assay: Western blot analysis of CCRF-CEM; format: cell-based; set-up: cleaved PARP and cleaved Caspase 3: dose or concentration left out as unconfirmed
Protocol: as §2

[3] = tested on: A375 human melanoma cells; assay: SDS PAGE and Western blot analysis of A375 cells; format: cell-based
Protocol: as §2, §1

[4] = tested on: Sept4/ARTS KO MEFs, shARTS HeLa, A-375, WT MEFs, WT HeLa; assay: Western blot of cell lines with different amounts of endogenous ARTS; format: cell-based; conditions: ABT-199 alone, 24 hrs
Protocol: as §2

## CC(C)C[C@@H](C=O)NC(=O)[C@H](CC(C)C)NC(=O)[C@H](CC(C)C)NC(=O)OCc1ccccc1 [MG-132] (Cbz-Leu-Leu-Leu-aldehyde)
sept4/ARTS KO MEFs
  p53 protein levels: accumulation

## COC(=O)c1[nH]c2ccc(Cl)cc2c1NC(=O)CN1CCN(Cc2ccccc2)CC1 [A4, 3-[2-(4-Benzyl-piperazin-1-yl)-acetylamino]-5-chloro-1H-indole-2-carboxylic acid methyl ester]
[1]
  XIAP levels: downregulates
  p53 levels: upregulate

## COc1cc([C@@H]2c3cc4c(cc3[C@@H](O[C@@H]3O[C@@H]5CO[C@@H](C)O[C@H]5[C@H](O)[C@H]3O)[C@H]3COC(=O)[C@H]23)OCO4)cc(OC)c1O [Etoposide]
p53-ARTS complex
  formation of p53-ARTS complex: promotes

## CC1(C)CCC(CN2CCN(c3ccc(C(=O)NS(=O)(=O)c4ccc(NCC5CCOCC5)c([N+](=O)[O-])c4)c(Oc4cnc5[nH]ccc5c4)c3)CC2)=C(c2ccc(Cl)cc2)C1 [ABT-199, 4-[4-[[2-(4-Chlorophenyl)-4,4-dimethyl-1-cyclohexen-1-yl]methyl]-1-piperazinyl]-N-[[3-nitro-4-[[(tetrahydro-2H-pyran-4-yl)methyl]amino]phenyl]sulfonyl]-2-(1H-pyrrolo[2,3-b]pyridin-5-yloxy)benzamide, reference compound]
HL-60 leukemia cell line
  cleaved PARP and cleaved Caspase 3: upregulated
[2]; ABT-199, 24 hrs
  cleaved PARP and cleaved Caspase 3: upregulated
[2]; ABT-199 alone, 24 hrs
  cleaved Caspase 3: increased
[3]; 5 μM ABT-199, 24 hrs
  ARTS levels: upregulated
  apoptotic markers, cleaved PARP and cleaved Caspase 3: upregulated
[3]; 10 μM ABT-199, 24 hrs
  BCL-2 levels: upregulated
[3]; ABT-199 alone, 2, 6 and 24 hrs
  Bcl-2 levels: upregulated
[4]
  ARTS levels: upregulated
